Drawing on ChEMBL document CHEMBL3751846, “Active site-directed plasmin inhibitors: Extension on the P2 residue” (Bioorg Med Chem, 2016), this text covers IC50, inhibition and Ki for 24 compounds.

Experiment [1] addresses T1, Plasminogen (Homo sapiens, UniProt P00747). In words: Inhibition of plasmin (unknown origin) using H-D-Val-Leu-Lys-pNA as substrate.
A further experiment deals with Trypsin (Homo sapiens, UniProt P07477+P07478+P35030). In words: Inhibition of trypsin (unknown origin) using H-D-Phe-Pip-Arg-pNA as substrate. The class given is protein assay.
For experiment [2], the target named is Urokinase-type plasminogen activator (Homo sapiens, UniProt P00749). Description: Inhibition of urokinase (unknown origin) using Pyr-Glu-Gly-Arg-pNA as substrate. As to conditions: for inhibition: concentration not given here.
Experiment [3] has as its target T1, Plasminogen. Description: Inhibition of plasmin (unknown origin).
For experiment [4], the target named is T1, Plasminogen. In words: Inhibition of human plasmin.
Experiment [5] concerns the target T1, Plasminogen. In words: Inhibition of human plasmin assessed as inhibition of amidolysis in presence of fibrinogen.
The target in experiment [6] is T1, Plasminogen. Description: Inhibition of human plasmin assessed as inhibition of fibrinolysis in presence of fibrinogen.
For experiment [7], the target named is T1, Plasminogen. In words: Inhibition of human plasmin assessed as inhibition of fibrinogenolysis in presence of fibrinogen.

SMILES strings stand for the structures. Square brackets hold non-standard residues; d marks the D form. Peptide text beside a SMILES is read from it. * marks the point of attachment. pNA = O=[N+]([O-])c1ccc(N*)cc1

T1 sequence (P00747 97-580 limits assumed): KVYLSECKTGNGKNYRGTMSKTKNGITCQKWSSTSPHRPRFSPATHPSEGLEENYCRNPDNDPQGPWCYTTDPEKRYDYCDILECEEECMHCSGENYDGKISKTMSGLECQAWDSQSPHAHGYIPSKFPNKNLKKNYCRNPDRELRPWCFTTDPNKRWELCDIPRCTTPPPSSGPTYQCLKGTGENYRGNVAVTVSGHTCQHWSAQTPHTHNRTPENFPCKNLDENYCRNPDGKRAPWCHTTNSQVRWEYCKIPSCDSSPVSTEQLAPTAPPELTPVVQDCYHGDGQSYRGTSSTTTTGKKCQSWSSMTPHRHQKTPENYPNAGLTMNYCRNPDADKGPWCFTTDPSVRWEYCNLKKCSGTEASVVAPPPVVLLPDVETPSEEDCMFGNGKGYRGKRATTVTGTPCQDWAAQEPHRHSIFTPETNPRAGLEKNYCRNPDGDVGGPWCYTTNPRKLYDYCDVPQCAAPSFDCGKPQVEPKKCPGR
T1 sequence (P00747 581-810 limits assumed): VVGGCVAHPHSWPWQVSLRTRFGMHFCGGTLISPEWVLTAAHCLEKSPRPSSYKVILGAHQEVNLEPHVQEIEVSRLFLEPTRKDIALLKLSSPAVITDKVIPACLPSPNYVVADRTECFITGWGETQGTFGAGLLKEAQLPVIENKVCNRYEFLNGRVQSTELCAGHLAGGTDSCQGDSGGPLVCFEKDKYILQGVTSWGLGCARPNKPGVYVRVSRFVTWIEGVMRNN

As a reminder, the IC50 is the midpoint of a concentration-inhibition curve. What is called inhibition is the percentage by which the read-out fell short of the control. `CCCCCCCCNC(=O)[C@H](Cc1ccc(OCc2ccccc2C(=O)OC)cc1)NC(=O)[C@H]1CC[C@H](CN)CC1`: the IC50 on Plasminogen [1] was 1500 nM; against Trypsin it was 4800 nM; in experiment [2] it was above 200000 nM. In experiment [2], this compound displayed an inhibition of 23%.

In the case of `CCCCCCCCNC(=O)[C@H](Cc1ccc(OCc2cccc(OCc3ccncc3)c2)cc1)NC(=O)[C@H]1CC[C@H](CN)CC1`, the 50% inhibitory concentration (IC50) was 970 nM against Plasminogen [1], 1300 nM against Trypsin and above 50000 nM in experiment [2]. Besides, the inhibition in experiment [2] amounted to 36%.

On to `CCCCCCCCNC(=O)[C@H](Cc1ccc(OCc2ccc3ccccc3n2)cc1)NC(=O)[C@H]1CC[C@H](CN)CC1`, for which the values for the IC50 (on Plasminogen [1]; against Trypsin; in experiment [2]) were 220 nM, 1400 nM and 77000 nM, respectively.

`CCCCCCCCNC(=O)[C@H](Cc1ccc(OC(C)(C)C)cc1)NC(=O)[C@H]1CC[C@H](CN)CC1`: the IC50 at Plasminogen [1] was 17000 nM; at Trypsin, 380 nM; in experiment [2], above 100000 nM. This compound also returned an inhibition in experiment [2] of 17%.

For the compound `CCCCCCCCNC(=O)[C@H](Cc1ccc(OCc2cccc(C(=O)O)c2)cc1)NC(=O)[C@H]1CC[C@H](CN)CC1`, the IC50 is 530 nM against Plasminogen [1], 2000 nM on Trypsin and above 50000 nM in experiment [2]. Further, in experiment [2], the inhibition worked out at 13%.

With `CCCCCCCCNC(=O)[C@H](Cc1ccc(OCc2cccc(C(=O)OCC)c2)cc1)NC(=O)[C@H]1CC[C@H](CN)CC1`, the IC50 at Plasminogen [1] was 510 nM; on Trypsin it was 2700 nM; in experiment [2] it was above 50000 nM. The compound further registered an inhibition in experiment [2] of 7%.

On to `CC[C@@H](C)[C@@H](N)C(=O)N[C@@H](Cc1ccc(OCc2cccc(OCc3ccncc3)c2)cc1)C(=O)N[C@H](C#N)CCCCN`, for which, on Plasminogen [3], half-maximal inhibition (IC50) was put at 7700 nM.

Turning to `CCCCCCCCNC(=O)[C@H](Cc1ccc(OCc2ccccc2)cc1)NC(=O)[C@H]1CC[C@H](CN)CC1`, the IC50 is 1700 nM against Plasminogen [1], 2200 nM at Trypsin and above 100000 nM in experiment [2]. Further, the inhibition in experiment [2] worked out at 0%.

`CCCCCCCCNC(=O)[C@H](Cc1ccc(O)cc1)NC(=O)[C@H]1CC[C@H](CN)CC1`: the IC50 against Plasminogen [1] came out at 67000 nM; against Trypsin, 1000 nM; in experiment [2], 62000 nM.

At Plasminogen [4], `CC(C)C[C@H](NC(=O)[C@H](N)C(C)C)C(=O)N[C@@H](CCCCN)C(=O)Nc1ccc([N+](=O)[O-])cc1` (H-[dV]-Leu-Lys-pNA) displayed an IC50 of 530 nM.

As to `CCCCCCCCNC(=O)[C@H](Cc1ccc(OCc2ccc(C(=O)OCC)cc2)cc1)NC(=O)[C@H]1CC[C@H](CN)CC1`, the IC50 was 490 nM on Plasminogen [1], 6100 nM against Trypsin and above 200000 nM in experiment [2]. The inhibition in experiment [2] was 40%.

On to `CCCCCCCCNC(=O)[C@H](Cc1ccc(OCc2ccc(C(F)(F)F)cc2)cc1)NC(=O)[C@H]1CC[C@H](CN)CC1`, for which the IC50 against Plasminogen [1] was 960 nM; against Trypsin, 6900 nM; in experiment [2], above 100000 nM. In experiment [2], this compound showed an inhibition of 6%.

For `CCCCCCCCNC(=O)[C@H](Cc1ccc(OCc2cccc3ccccc23)cc1)NC(=O)[C@H]1CC[C@H](CN)CC1`, the IC50 was 1600 nM at Plasminogen [1], 2700 nM against Trypsin and above 100000 nM in experiment [2]. The compound further yielded an inhibition in experiment [2] of 10%.

For the compound `CCCCCCCCNC(=O)[C@H](Cc1ccc(OCc2cccc3cccnc23)cc1)NC(=O)[C@H]1CC[C@H](CN)CC1`, the values for the IC50 (at Plasminogen [1]; at Trypsin; in experiment [2]) were 340 nM, 930 nM and above 100000 nM, respectively. The compound also registered an inhibition in experiment [2] of 24%.

As for `CCCCCCCCNC(=O)[C@H](Cc1ccc(OCc2cccc(C(F)(F)F)c2)cc1)NC(=O)[C@H]1CC[C@H](CN)CC1`, the IC50 was 600 nM at Plasminogen [1], 2500 nM at Trypsin and above 100000 nM in experiment [2]. Also, the inhibition in experiment [2] stood at 12%.

The term Ki denotes a dissociation constant, usually derived from enzyme kinetics or from competition with a known ligand. Regarding `CCCCCCNC(=O)[C@H](Cc1ccc(OCc2cccnc2)cc1)NC(=O)c1ccc(CN)cc1`, on Plasminogen [5], the Ki worked out at 2900 nM. The IC50 is 2900 nM on Plasminogen [6] and 4500 nM on Plasminogen [7].

For the compound `CCCCCCCCNC(=O)[C@H](Cc1ccc(OCc2cccc(-c3ccccc3)c2)cc1)NC(=O)[C@H]1CC[C@H](CN)CC1`, the IC50 against Plasminogen [1] was 750 nM; against Trypsin, 6700 nM; in experiment [2] it was above 100000 nM. In experiment [2], this compound returned an inhibition of 41%.

With `CCCCCCCCNC(=O)[C@H](Cc1ccc(OCc2cccc(N)c2)cc1)NC(=O)[C@H]1CC[C@H](CN)CC1`, the IC50 on Plasminogen [1] is 860 nM; at Trypsin, 860 nM; in experiment [2] it was above 100000 nM. Moreover, the inhibition in experiment [2] was 31%.

Turning to `CCCCCCCCNC(=O)[C@H](Cc1ccc(OCc2ccc3ccccc3c2)cc1)NC(=O)[C@H]1CC[C@H](CN)CC1`, the IC50 on Plasminogen [1] was 710 nM; against Trypsin, 4400 nM; in experiment [2] it was above 100000 nM. In experiment [2], this compound gave an inhibition of 23%.

Turning to `CCCCCCCCNC(=O)[C@H](Cc1ccc(OCc2ccc(C(=O)O)cc2)cc1)NC(=O)[C@H]1CC[C@H](CN)CC1`, the values for the IC50 (on Plasminogen [1]; on Trypsin; in experiment [2]) were 2700 nM, 4700 nM and above 100000 nM, respectively. This compound returned an inhibition in experiment [2] of 22%.

Regarding `CCCCCCCCNC(=O)[C@H](Cc1ccc(OCc2cccc([N+](=O)[O-])c2)cc1)NC(=O)[C@H]1CC[C@H](CN)CC1`, the IC50 against Plasminogen [1] was 680 nM; against Trypsin it was 2100 nM; in experiment [2], above 100000 nM. For the same compound, in experiment [2], the inhibition stood at 13%.

Compound `CC[C@@H](C)[C@@H](N)C(=O)N[C@@H](Cc1ccc(OCc2ccncc2)cc1)C(=O)N[C@H](C#N)CCCCN` returned a concentration for half-maximal inhibition (IC50) against Plasminogen [3] of 11000 nM.

`CCCCCCCCNC(=O)[C@H](Cc1ccc(OCc2ccncc2)cc1)NC(=O)[C@H]1CC[C@H](CN)CC1`: the IC50 at Plasminogen [1] was found to be 530 nM; against Trypsin it was 1100 nM; in experiment [2], 5300 nM.

Consider `CCCCCCCCNC(=O)[C@H](Cc1ccc(OCc2ccccc2C(F)(F)F)cc1)NC(=O)[C@H]1CC[C@H](CN)CC1`, for which the figures for the concentration for half-maximal inhibition (IC50) (against Plasminogen [1]; against Trypsin; in experiment [2]) were 3000 nM, 4600 nM and above 100000 nM, respectively. This compound yielded an inhibition in experiment [2] of 5%.
